SMILES strings stand for the structures. Values joined by “and” are separate entries in the source; they are usually repeats but may differ in a detail not shown here. Identical values can stand only once. Like-named read-outs stand apart in the source and are kept apart here.

Among the data in US12227501B2, “3-amino-2-[2-(acylamino)pyridin-4-yl]-1,5,6,7-tetrahydro-4h-pyrrolo[3,2-c]pyridin-4-one as CSNK1 inhibitors” (Bayer Aktiengesellschaft, priority 2019, dated 2025) are IC50 values, retold here.

Common to all, as to assay type: biochemical
Assay [1] deals with T1, human CSNK1A1 (Homo sapiens (Human), UniProt P48729). The assay is described as follows: CSNK1A1 Assay 2 (ADP-Glo, 1 μM ATP). The conditions noted are these: substrate biotin-Ahx-KRRRAL-pS-VASLPGL, read-out: CSNK1A1 Assay 2 IC50 [mol/l] (median). The method, boiled down: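 Full-length human CSNK1A1 as an N-terminal GST fusion (baculovirus/insect cells) with biotinylated peptide substrate biotin-Ahx-KRRRAL-pS-VASLPGL and 1 μM ATP, in HEPES pH 7.5 buffer. Compounds were pre-incubated with enzyme (~0.0375 ng/μL) for 15 min at 22 °C. Generated ADP was read by ADP-Glo luminescence as the activity measure.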
Background: In ADP-Glo the light output rises with the ADP produced.

Assay [2] deals with T1, human CSNK1A1. Description: CSNK1A1 High ATP Assay (ADP-Glo, 1 mM ATP). To be noted: read-out: CSNK1A1 high ATP assay IC50 [mol/l] (median). An outline of the steps:
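Kinase activity taken as ADP generated, quantified by ADP-Glo luminescence after 1 h ATP depletion and 1 h detection at 22 °C. Enzyme is GST–full-length human CSNK1A1 (insect cell-expressed), pre-bound to compound for 15 min, with phosphopeptide substrate and 1 mM ATP.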

A further assay addresses human CSNK1D (Homo sapiens (Human), UniProt P48730). Description: CSNK1D Assay (ADP-Glo, 1 μM ATP). To be noted: read-out: CSNK1D IC50 [mol/l] (median). An outline of the steps:
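Activity is read as ADP produced, by ADP-Glo luminescence after 1 h steps at 22 °C. The reaction uses 1 μM ATP, a biotinylated peptide and insect-cell-expressed GST–CSNK1D (about 0.5 ng/μL) in pH 7.5 HEPES buffer, with 15 min compound–enzyme preincubation.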

In assay [3] the target is wild-type Epidermal Growth Factor Receptor (EGFR) (Homo sapiens (Human), UniProt P00533). The assay is described as follows: WT-EGFR Kinase Assay (TR-FRET, 2 mM ATP). (In general: TR-FRET usually uses a lanthanide donor and a delayed reading to cut background.)
Where [4] appears, read: read-out: EGFR Wildtyp- 2 mM ATP IC50 [mol/l] (median).

Chain of human CSNK1D (P48730 whole entry): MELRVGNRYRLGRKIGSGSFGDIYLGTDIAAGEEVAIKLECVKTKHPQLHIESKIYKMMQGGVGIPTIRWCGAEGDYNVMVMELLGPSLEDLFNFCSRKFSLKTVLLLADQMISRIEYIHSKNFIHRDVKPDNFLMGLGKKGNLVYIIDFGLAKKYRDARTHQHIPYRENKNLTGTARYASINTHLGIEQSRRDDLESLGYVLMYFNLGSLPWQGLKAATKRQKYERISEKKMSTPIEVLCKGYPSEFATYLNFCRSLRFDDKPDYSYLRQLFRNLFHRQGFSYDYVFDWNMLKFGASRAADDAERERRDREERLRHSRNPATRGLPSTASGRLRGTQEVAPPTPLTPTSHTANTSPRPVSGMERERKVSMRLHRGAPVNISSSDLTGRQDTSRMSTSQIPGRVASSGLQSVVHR
T1 sequence (P48729 whole entry, the tested form may be a part): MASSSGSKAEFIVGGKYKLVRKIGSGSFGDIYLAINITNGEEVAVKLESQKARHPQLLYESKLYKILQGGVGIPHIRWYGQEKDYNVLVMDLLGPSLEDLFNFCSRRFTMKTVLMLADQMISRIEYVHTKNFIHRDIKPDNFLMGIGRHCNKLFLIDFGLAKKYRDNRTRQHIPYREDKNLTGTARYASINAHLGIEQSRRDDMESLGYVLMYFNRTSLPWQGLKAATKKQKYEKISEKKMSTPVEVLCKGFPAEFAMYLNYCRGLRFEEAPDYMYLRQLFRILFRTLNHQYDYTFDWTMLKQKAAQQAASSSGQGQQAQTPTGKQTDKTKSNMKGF
Chain of wild-type Epidermal Growth Factor Receptor (EGFR) (P00533 669-1210): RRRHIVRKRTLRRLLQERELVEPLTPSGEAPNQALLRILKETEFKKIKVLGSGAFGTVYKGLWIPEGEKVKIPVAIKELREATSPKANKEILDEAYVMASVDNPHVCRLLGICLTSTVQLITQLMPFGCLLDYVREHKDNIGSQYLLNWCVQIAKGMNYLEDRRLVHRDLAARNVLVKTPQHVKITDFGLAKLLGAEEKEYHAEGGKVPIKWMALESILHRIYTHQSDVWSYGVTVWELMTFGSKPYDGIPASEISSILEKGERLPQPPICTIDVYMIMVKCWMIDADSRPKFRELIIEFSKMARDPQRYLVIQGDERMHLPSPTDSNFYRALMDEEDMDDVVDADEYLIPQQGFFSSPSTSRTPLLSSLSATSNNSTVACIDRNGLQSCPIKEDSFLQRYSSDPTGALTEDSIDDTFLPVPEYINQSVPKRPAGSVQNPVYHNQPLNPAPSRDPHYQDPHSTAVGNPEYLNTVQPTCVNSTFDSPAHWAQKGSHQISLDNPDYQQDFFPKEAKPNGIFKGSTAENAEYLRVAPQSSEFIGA

As for `CC(C(=O)Nc1cc(-c2[nH]c3c(c2Nc2ccccc2)C(=O)N(CC(C)(C)O)CC3)ccn1)c1ccc(F)cc1` (centres unmarked) [Example 24, N-{4-[3-anilino-5-(2-hydroxy-2-methylpropyl)-4-oxo-4,5,6,7-tetrahydro-1H-pyrrolo[3,2-c]pyridin-2-yl]pyridin-2-yl}-2-(4-fluorophenyl)propanamide], the IC50 on human CSNK1A1 [1] is 0.0392 µM; at human CSNK1A1 [2], > 5.71 µM and 4.24 µM; at human CSNK1D, 0.064 µM; in assay [3] (setting [4]), over 20 µM.
Consider `CC(C(=O)Nc1cc(-c2[nH]c3c(c2Nc2ccccc2)C(=O)NC(C)(C)C3)ccn1)c1ccc(F)cc1` (centres unmarked) [Example 27, N-[4-(3-anilino-6,6-dimethyl-4-oxo-4,5,6,7-tetrahydro-1H-pyrrolo[3,2-c]pyridin-2-yl)pyridin-2-yl]-2-(4-fluorophenyl)propanamide], for which the IC50 on human CSNK1A1 [1] is 0.0077 µM; on human CSNK1A1 [2], 0.157 µM; at human CSNK1D it was 0.0362 µM; in assay [3] (EGFR Wildtyp- 2 mM ATP IC50 [mol/l] (median)), over 20 µM; in assay [3] (setting [4]) it was 18 µM.
On to `CCN1CCc2[nH]c(-c3ccnc(NC(=O)Cc4ccc(F)cc4)c3)c(Nc3ccccc3)c2C1=O` [Example 28, N-[4-(3-anilino-5-ethyl-4-oxo-4,5,6,7-tetrahydro-1H-pyrrolo[3,2-c]pyridin-2-yl)pyridin-2-yl]-2-(4-fluorophenyl)acetamide], for which the IC50 on human CSNK1A1 [1] is 0.0114 µM; at human CSNK1A1 [2] it was 1.98 µM; at human CSNK1D, 0.0712 µM; in assay [3] (setting [4]) it was over 20 µM.
For the compound `CN1CCc2[nH]c(-c3ccnc(NC(=O)C(CCN4CCOCC4)c4ccccc4)c3)c(Nc3ccccc3)c2C1=O` (centres unmarked) [Example 30, N-[4-(3-anilino-5-methyl-4-oxo-4,5,6,7-tetrahydro-1H-pyrrolo[3,2-c]pyridin-2-yl)pyridin-2-yl]-4-(morpholin-4-yl)-2-phenylbutanamide], the IC50 is 0.00801 µM on human CSNK1A1 [1], 0.485 µM at human CSNK1A1 [2], 0.0259 µM on human CSNK1D and over 20 µM in assay [3] (setting [4]).
On to `CN1CCc2[nH]c(-c3ccnc(NC(=O)C(CC(F)F)c4ccccc4)c3)c(Nc3ccccc3)c2C1=O` (centres unmarked) [Example 33, N-[4-(3-anilino-5-methyl-4-oxo-4,5,6,7-tetrahydro-1H-pyrrolo[3,2-c]pyridin-2-yl)pyridin-2-yl]-4,4-difluoro-2-phenylbutanamide], for which the IC50 at human CSNK1A1 [1] was 0.00615 µM; at human CSNK1A1 [2], 0.0722 µM; at human CSNK1D it was 0.0181 µM; in assay [3] (setting [4]), over 20 µM.
The corresponding values for `CN1C(=O)c2c([nH]c(-c3ccnc(NC(=O)Cc4ccc(F)cc4)c3)c2Nc2ccccc2)CC1(C)C` [Example 44, N-[4-(3-anilino-5,6,6-trimethyl-4-oxo-4,5,6,7-tetrahydro-1H-pyrrolo[3,2-c]pyridin-2-yl)pyridin-2-yl]-2-(4-fluorophenyl)acetamide] are 0.00482 µM, 0.671 µM, 0.0107 µM and 4.14 µM.
The corresponding values for `CC1(C)Cc2[nH]c(-c3ccnc(NC(=O)Cc4ccncc4)c3)c(Nc3ccccc3)c2C(=O)N1` [Example 51, N-[4-(3-anilino-6,6-dimethyl-4-oxo-4,5,6,7-tetrahydro-1H-pyrrolo[3,2-c]pyridin-2-yl)pyridin-2-yl]-2-(pyridin-4-yl)acetamide] are 0.00487 µM, 0.0258 µM, 0.00667 µM and 0.563 µM.
Take `CC1(C)Cc2[nH]c(-c3ccnc(NC(=O)Cc4cccnc4)c3)c(Nc3ccccc3)c2C(=O)N1` [Example 52, N-[4-(3-anilino-6,6-dimethyl-4-oxo-4,5,6,7-tetrahydro-1H-pyrrolo[3,2-c]pyridin-2-yl)pyridin-2-yl]-2-(pyridin-3-yl)acetamide]: the IC50 on human CSNK1A1 [1] turned out to be 0.00491 µM; on human CSNK1A1 [2] it was 0.0254 µM; at human CSNK1D it was 0.00678 µM; in assay [3] (setting [4]) it was 0.526 µM.
The corresponding values for `COCCN1CCc2[nH]c(-c3ccnc(NC(=O)Cc4ccc(F)cc4)c3)c(Nc3ccccc3)c2C1=O` [Example 53, N-{4-[3-anilino-5-(2-methoxyethyl)-4-oxo-4,5,6,7-tetrahydro-1H-pyrrolo[3,2-c]pyridin-2-yl]pyridin-2-yl}-2-(4-fluorophenyl)acetamide] are 0.00968 µM, 0.907 µM, 0.015 µM and 6.03 µM.
For `O=C(Cc1ccc(F)cc1)Nc1cc(-c2[nH]c3c(c2Nc2ccccc2)C(=O)NC2(CCC2)C3)ccn1` [Example 57, N-[4-(3′-anilino-4′-oxo-1′,4′,5′,7′-tetrahydrospiro[cyclobutane-1,6′-pyrrolo[3,2-c]pyridin]-2′-yl)pyridin-2-yl]-2-(4-fluorophenyl)acetamide], the IC50 at human CSNK1A1 [1] was found to be 0.00201 µM; on human CSNK1A1 [2] it was 0.0103 µM; on human CSNK1D it was 0.0031 µM; in assay [3] (setting [4]), 0.87 µM.
Take `CN1CCc2[nH]c(-c3ccnc(NC(=O)Cc4ccncc4)c3)c(Nc3ccccc3)c2C1=O` [Example 64, N-[4-(3-anilino-5-methyl-4-oxo-4,5,6,7-tetrahydro-1H-pyrrolo[3,2-c]pyridin-2-yl)pyridin-2-yl]-2-(pyridin-4-yl)acetamide]: the IC50 on human CSNK1A1 [1] was 0.00265 µM; at human CSNK1A1 [2], 0.031 µM; at human CSNK1D, 0.00551 µM; in assay [3] (setting [4]) it was 1.2 µM.
The corresponding values for `CN1CCc2[nH]c(-c3ccnc(NC(=O)Cc4ccc(S(C)(=O)=O)cc4)c3)c(Nc3ccccc3)c2C1=O` [Example 65, N-[4-(3-anilino-5-methyl-4-oxo-4,5,6,7-tetrahydro-1H-pyrrolo[3,2-c]pyridin-2-yl)pyridin-2-yl]-2-[4-(methanesulfonyl)phenyl]acetamide] are 0.00151 µM, 0.0175 µM, 0.00546 µM and 0.49 µM.
The corresponding values for `CN1CCc2[nH]c(-c3ccnc(NC(=O)Cc4ccc(C(F)(F)F)cc4)c3)c(Nc3ccccc3)c2C1=O` [Example 66, N-[4-(3-anilino-5-methyl-4-oxo-4,5,6,7-tetrahydro-1H-pyrrolo[3,2-c]pyridin-2-yl)pyridin-2-yl]-2-[4-(trifluoromethyl)phenyl]acetamide] are 0.00275 µM, 0.0335 µM, 0.00557 µM and 8.55 µM.
`CN1CCc2[nH]c(-c3ccnc(NC(=O)Cc4cccnc4)c3)c(Nc3ccccc3)c2C1=O` [Example 67, N-[4-(3-anilino-5-methyl-4-oxo-4,5,6,7-tetrahydro-1H-pyrrolo[3,2-c]pyridin-2-yl)pyridin-2-yl]-2-(pyridin-3-yl)acetamide]: the IC50 on human CSNK1A1 [1] turned out to be 0.00241 µM; on human CSNK1A1 [2] it was 0.0446 µM; on human CSNK1D, 0.00379 µM; in assay [3] (setting [4]) it was 0.997 µM.
The corresponding values for `Cc1ccc(CC(=O)Nc2cc(-c3[nH]c4c(c3Nc3ccccc3)C(=O)N(C)CC4)ccn2)cc1` [Example 68, N-[4-(3-anilino-5-methyl-4-oxo-4,5,6,7-tetrahydro-1H-pyrrolo[3,2-c]pyridin-2-yl)pyridin-2-yl]-2-(4-methylphenyl)acetamide] are 0.0032 µM, 0.0742 µM, 0.00363 µM and 2.1 µM.
The corresponding values for `CN1CCc2[nH]c(-c3ccnc(NC(=O)Cc4cccc(S(C)(=O)=O)c4)c3)c(Nc3ccccc3)c2C1=O` [Example 69, N-[4-(3-anilino-5-methyl-4-oxo-4,5,6,7-tetrahydro-1H-pyrrolo[3,2-c]pyridin-2-yl)pyridin-2-yl]-2-[3-(methanesulfonyl)phenyl]acetamide] are 0.00313 µM, 0.0817 µM, 0.00468 µM and 0.51 µM.
The corresponding values for `CN1CCc2[nH]c(-c3ccnc(NC(=O)Cc4ccc(C(F)F)cc4)c3)c(Nc3ccccc3)c2C1=O` [Example 78, N-[4-(3-anilino-5-methyl-4-oxo-4,5,6,7-tetrahydro-1H-pyrrolo[3,2-c]pyridin-2-yl)pyridin-2-yl]-2-[4-(difluoromethyl)phenyl]acetamide] are 0.00295 µM, 0.0955 µM, 0.00793 µM and 3.09 µM.
Take `CN1CCc2[nH]c(-c3ccnc(NC(=O)Cc4ccc(F)cc4F)c3)c(Nc3ccccc3)c2C1=O` [Example 82, N-[4-(3-anilino-5-methyl-4-oxo-4,5,6,7-tetrahydro-1H-pyrrolo[3,2-c]pyridin-2-yl)pyridin-2-yl]-2-(2,4-difluorophenyl)acetamide]: the IC50 on human CSNK1A1 [1] came out at 0.00226 µM; at human CSNK1A1 [2], 0.162 µM; on human CSNK1D, 0.00552 µM; in assay [3] (setting [4]), 1.15 µM.
As to `CN1CCc2[nH]c(-c3ccnc(NC(=O)Cc4ccc(F)c(F)c4)c3)c(Nc3ccccc3)c2C1=O` [Example 83, N-[4-(3-anilino-5-methyl-4-oxo-4,5,6,7-tetrahydro-1H-pyrrolo[3,2-c]pyridin-2-yl)pyridin-2-yl]-2-(3,4-difluorophenyl)acetamide], the IC50 at human CSNK1A1 [1] was 0.00303 µM; at human CSNK1A1 [2] it was 0.0614 µM; on human CSNK1D it was 0.0073 µM; in assay [3] (setting [4]), 2.92 µM.
